{"source": "patent US20240325394A1", "about": "“SALT AND CRYSTAL FORM OF NITROGEN-CONTAINING HETEROCYCLIC DERIVATIVE, PREPARATION METHOD THEREFOR AND APPLICATION THEREOF” (SHANGHAI HANSOH BIOMEDICAL CO., LTD., priority 2020, published 2024)", "key": {"[1]": {"test": "Pharmacokinetics in mice (plasma) after oral administration", "format": "in vivo, Balb/c mice", "quoted_text": "5 g of Hydroxyethyl cellulose (HEC, CMC-Na, viscosity: 800-1200 Cps) was weighed, dissolved in 1000 mL of purified water, and 10 g of Tween 80 was added. The mixture was mixed well to form a clear solution.\nThe compounds of the embodiments were weighed and added into 4-mL glass bottles, respectively, 2.4 mL of the solution was added, and ultrasound was performed for 10 minutes to obtain a colorless clear solution with a concentration of 1 mg/mL.\nBalb/C mice, males; PO, after overnight fasting, respectively, at a dose of 10 mg/kg, administered in a volume of 10 mL/kg.\nBlood samples were collected before administration and 0.083 h, 0.25 h, 0.5 h, 1 h, 2 h, 4 h, 6 h and 8 h after administration, the blood was placed in EDTA-2K tube, centrifuged at 4° C. 6000 rpm for 6 min to separate plasma, and stored at −80° C.; food was consumed 4 hours after drug administration."}, "[2]": {"test": "Plasma stability, rat plasma", "format": "in vitro ADME", "conditions": "rat plasma, 37° C.", "procedure,_shortened": "(§1)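 Compound from a 10 μM working solution in 100 mM phosphate buffer was incubated at 37°C in anticoagulated plasma from each species, with propantheline as positive control. Aliquots taken at 0, 15, 30, 60, 90 and 120 min were quenched in acetonitrile with internal standard. Remaining compound was quantified by LC-MS/MS (positive ESI, MRM).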"}, "[3]": {"test": "Plasma stability, mouse plasma", "format": "in vitro ADME", "procedure,_shortened": "as §1"}, "[4]": {"molecular_target": "T1, CYP450 2C9 (Homo sapiens, UniProt P11712)", "T1 construct": "from tissue; host or cells: human liver microsomes", "test": "CYP enzyme single point inhibition test, human liver microsomes, 2C9", "format": "in vitro ADME", "conditions": "single point method", "description": "(§2) Using human liver microsomal incubation system, the inhibition of CYP450 enzyme subtypes by compounds was rapidly predicted by single point method.\n(§3) 2.5 mM NADPH: 100 mM phosphate buffer was added to 4.165 mg of NADPH (reduced nicotinamide adenine dinucleotide phosphate) to 2 mL. 0.25 mg/mL microsome: 4 mL of 100 mM phosphate buffer was added to 50 μL of 20 mg/mL microsome and mixed well.\n(§4) The embodiment compound to be tested was weighed and diluted to 10 mM with DMSO and then diluted to 100 µM with 100 mM phosphate buffer.\n(§5) • 1. In a 96-well plate, 40 μL of liver microsomes, 10 μL of substrate, 10 μL of compound to be tested were pre-incubated for 3 min. • 2. 40 μL of NADPH was added. • 3. 300 μL of acetonitrile termination solution containing internal standard was added at 20 min. • 4. Centrifugal injection."}, "[5]": {"molecular_target": "T2, CYP450 2D6 (Homo sapiens, UniProt P10635)", "T2 construct": "from tissue; host or cells: human liver microsomes", "test": "CYP enzyme single point inhibition test, human liver microsomes, 2D6", "format": "in vitro ADME", "conditions": "single point method", "description": "as §2, §3, §4, §5"}, "[6]": {"molecular_target": "T3, CYP450 3A4 (Homo sapiens, UniProt P08684)", "T3 construct": "from tissue; host or cells: human liver microsomes", "test": "CYP enzyme single point inhibition test, human liver microsomes, 3A4 (3A4-M, 3A4-T)", "format": "in vitro ADME", "conditions": "single point method", "description": "as §2, §3, §4, §5"}, "[7]": {"tested_on": "NCI-H358 cells (KRAS G12C mutant)", "test": "Inhibition of NCI-H358 cell proliferation (CellTiter-Glo, 72 h)", "format": "cell-based, human", "description": "When NCI-H358 or Mia PaCa-2 cells were cultured to the appropriate fusion level, the NCI-H358 or Mia PaCa-2 cells were collected, and the cells were adjusted to the appropriate cell concentration using a complete medium, and the cell suspension was spread in a 96-well plate, 90 μL per well, and placed in a 37° C., 5% CO2 incubator overnight; and compound solutions of different concentrations were prepared using DMSO and culture medium; and a solvent control was set, the compound solution was added to a 96-well plate, 10 μL per well, at 37° C. in a 5% CO2 incubator for 72 hours; CellTiter-Glo solution was added thereto and the mixture was mixed well by shaking, incubated for 10 min in the dark, and read by BioTek Synergy H1 microplate reader.\nThe luminescence signal values were used to calculate the inhibition rate, the concentration and the inhibition rate were fitted to a nonlinear regression curve using Graphpad Prism software, then the IC50 value was obtained."}, "[8]": {"tested_on": "human pancreatic cancer cell MiaPaca 2 xenograft (CDX)", "test": "Tumor inhibition on MiaPaca 2 transplanted tumor model", "format": "in vivo, BALB/c nude mice", "conditions": "oral 6 mg/kg QD×3w", "description": "MiaPaca 2 cells were removed from the cell bank, revived and added to DMEM medium (containing 10% FBS, 1% Glu, 1% P/S) and incubated in a CO2 incubator (incubator temperature was 37° C., CO2 concentration was 5%). After the cells were spread to 80-90% of the bottom of the culture flask, the cells were continued to be cultured in the CO2 incubator. The process was repeated until the number of cells met the in vivo pharmacological inoculation requirement, and the cells in logarithmic growth period were collected and counted with an automatic cell counter, resuspended with PBS and Matrigel (volume ratio 1:1) according to the count results, made into a cell suspension (the density was 8×10^7/mL), and placed in an ice box for use.\nBALB/c nude mice, female, 6-8 weeks old, weighing about 18-22 g. The mice were kept in an environment free of special pathogens and in a single ventilated cage with 5 mice in each cage. […] Nude mice were labeled with disposable universal ear tags for mice and rats before the start of the experiment, and the skin of the inoculation site was disinfected with 75% medical alcohol before inoculation, 0.1 mL (containing 8*10^6 cells) of MiaPaca 2 tumor cells were inoculated subcutaneously on the right back of each mouse. When the tumor volume reached 100-200 mm^3, the group administration was started.\nThe tumor volume (mm^3) was measured with vernier caliper twice a week, the calculation formula was V=[…], wherein D and d were the long and short diameter of the tumor, respectively. The anti-tumor efficacy was determined by dividing the average tumor increased volume of the compound-treated animals by the average tumor increased volume of the untreated animals. The formula of tumor inhibition rate is: TGI (%)=1−[(Vt−V0) administration group/(Vt−V0) solvent control group]*100%. After the experiment, all animals were euthanized."}, "[9]": {"conditions": "3A4-M, read-out: IC50 (μM) 3A4-M"}, "[10]": {"conditions": "3A4-T, read-out: IC50 (μM) 3A4-T"}, "[11]": {"conditions": "Balb/c mice, PO 10 mg/kg, plasma"}}, "note": "Where two headings read alike, the source gives them in different places.", "data": [{"molecule": "C=CC(=O)N1C[C@H](C)N(c2nc(=O)n(-c3c(SC)ccnc3C(C)C)c3nc(-c4c(N)ccc(Cl)c4F)c(Cl)cc23)C[C@H]1C", "note": "(atropisomer, axis not shown) [Embodiment 13-1, P-4-((2S,5R)-4-Acryloyl-2,5-dimethylpiperazin-1-yl)-7-(6-amino-3-chloro-2-fluorophenyl)-6-chloro-1-(2-isopropyl-4-(methylthio)pyridin-3-yl)pyrido[2,3-d]pyrimidin-2(1H)-one]", "values": [{"measurement": "half-life", "setting": "[1]; male, Balb/c, mouse, in vivo, po, 10 mg/kg", "result": 60, "unit": "min"}, {"measurement": "Residual rate (%) 0 min", "setting": "[2]", "result": 100.00, "unit": "%"}, {"measurement": "Residual rate (%) 15 min", "setting": "[2]", "result": 95.57, "unit": "%"}, {"measurement": "Residual rate (%) 30 min", "setting": "[2]", "result": 96.73, "unit": "%"}, {"measurement": "Residual rate (%) 60 min", "setting": "[2]", "result": 93.97, "unit": "%"}, {"measurement": "Residual rate (%) 120 min", "setting": "[2]", "result": 91.93, "unit": "%"}, {"measurement": "Residual rate (%) 0 min", "setting": "[3]; mouse, 0.5 μM", "result": 100.00, "unit": "%"}, {"measurement": "Residual rate (%) 15 min", "setting": "[3]; mouse, 0.5 μM", "result": 100.58, "unit": "%"}, {"measurement": "Residual rate (%) 30 min", "setting": "[3]; mouse, 0.5 μM", "result": 99.52, "unit": "%"}, {"measurement": "Residual rate (%) 60 min", "setting": "[3]; mouse, 0.5 μM", "result": 99.64, "unit": "%"}, {"measurement": "Residual rate (%) 120 min", "setting": "[3]; mouse, 0.5 μM", "result": 92.32, "unit": "%"}, {"measurement": "IC50", "setting": "[4]", "result": 58.8, "unit": "µM"}, {"measurement": "IC50", "setting": "[5]", "result": 21.2, "unit": "µM"}, {"measurement": "IC50", "setting": "[6]; [9]", "result": 4.7, "unit": "µM"}, {"measurement": "IC50", "setting": "[6]; [10]", "result": 9.1, "unit": "µM"}]}, {"molecule": "P-4-((2S,5R)-4-acryloyl-2,5-dimethylpiperazin-1-yl)-6-fluoro-7-(2-fluoro-6-hydroxyphenyl)-1-(2-isopropyl-4-(methylthio)pyridin-3-yl)pyrido[2,3-d]pyrimidin-2(1H)-one [Embodiment 2-1]", "values": [{"measurement": "IC50", "setting": "[7]", "result": 0.035, "unit": "µM"}, {"measurement": "AUC0-∞", "setting": "[1]; [11]", "result": 1373, "unit": "ng·h/mL"}, {"measurement": "Cmax", "setting": "[1]; [11]", "result": 1823, "unit": "ng/mL"}, {"measurement": "MRT", "setting": "[1]; [11]", "result": 42, "unit": "min"}, {"measurement": "T1/2", "setting": "[1]; [11]", "result": 36, "unit": "min"}, {"measurement": "Tmax", "setting": "[1]; [11]", "result": 15, "unit": "min"}, {"measurement": "Tumor volume (mm^3, Mean ± SD) Day 0", "setting": "[8]; Day 0", "result": "177 ± 38", "unit": "mm^3"}, {"measurement": "TGI (%) Day 21", "setting": "[8]; Day 21", "result": 162.36, "unit": "%"}, {"measurement": "Tumor volume (mm^3, Mean ± SD) Day 21", "setting": "[8]; Day 21", "result": "67 ± 34", "unit": "mm^3"}, {"measurement": "ΔT/ΔC (%) Day 21", "setting": "[8]; Day 21", "result": "−62.36", "unit": "%"}, {"measurement": "Residual rate (%) 0 min", "setting": "[2]", "result": 100.00, "unit": "%"}, {"measurement": "Residual rate (%) 15 min", "setting": "[2]", "result": 99.04, "unit": "%"}, {"measurement": "Residual rate (%) 30 min", "setting": "[2]", "result": 101.03, "unit": "%"}, {"measurement": "Residual rate (%) 60 min", "setting": "[2]", "result": 97.16, "unit": "%"}, {"measurement": "Residual rate (%) 120 min", "setting": "[2]", "result": 84.63, "unit": "%"}, {"measurement": "Residual rate (%) 0 min", "setting": "[3]; mouse plasma, 37° C.", "result": 100.00, "unit": "%"}, {"measurement": "Residual rate (%) 15 min", "setting": "[3]; mouse plasma, 37° C.", "result": 102.67, "unit": "%"}, {"measurement": "Residual rate (%) 30 min", "setting": "[3]; mouse plasma, 37° C.", "result": 98.51, "unit": "%"}, {"measurement": "Residual rate (%) 60 min", "setting": "[3]; mouse plasma, 37° C.", "result": 95.49, "unit": "%"}, {"measurement": "Residual rate (%) 120 min", "setting": "[3]; mouse plasma, 37° C.", "result": 84.58, "unit": "%"}, {"measurement": "IC50", "setting": "[4]", "result": 84.6, "unit": "µM"}, {"measurement": "IC50", "setting": "[5]", "result": "> 100", "unit": "µM"}, {"measurement": "IC50", "setting": "[6]; [9]", "result": 19, "unit": "µM"}, {"measurement": "IC50", "setting": "[6]; [10]", "result": "> 100", "unit": "µM"}]}]}
